Experimental data reported in patent US20060148679A1, “Glycosolated enkephalin agents” (priority 2003, published 2006).

Tested on: male ICR mice
Assay: 55° C. tail flick test for antinociception
Type: in vivo
Experimental: The mouse anti-nociception tests were conducted with male ICR mice weighing 25-35 grams using the 55° C. tail flick test. A baseline latency was taken for each mouse. Then the mice were injected with drug and tested for antinociception at various times post-injection. A ten second cut off point was used to avoid tissue damage. The percent of antinociception was calculated as ((Test latency-Control Latency)/(10-Control Latency))×100. The majority of the drugs were tested at varying dosages.
Note the in the nomenclature used in Table 2, the D-threonine residues are indicated at “t,” the “L-Ser” indicate the isomer of serine and not a second leucine, and the sugars are indicated in parenthesis at their site of attachment. The molecules have been tested for anti-nociception in the […] animal model using the standard tail flick assay. The molecules were tested for binding to the opioid receptors and for analgesic effect delivered either to the brain (ICV) or to the bloodstream (IV). Table 2 is appended to the end of this specification.

## CN1CC[C@]23c4c5ccc(O)c4O[C@H]2[C@@H](O)C=C[C@H]3[C@H]1C5 [Morphine]
Delivered to the bloodstream (i.v.)
  IV (Mouse): 6.3 µmol/kg
Delivered to the brain (i.c.v.)
  ICV (Mouse) IC50: 2.7 nmol
